{"source": "patent US10022357B2", "about": "“Amyloid precursor protein MRNA blockers for treating Down syndrome and Alzheimer's disease” (THE GENERAL HOSPITAL CORPORATION, priority 2013, dated 2018)", "key": {"APP 5′UTR": {"tested_on": "APP 5′UTR", "assay_type": "cell-based, human", "experimental": "The LDDN library had already yielded small molecules that inhibit mesangial cell proliferation, following three-dimensional pharmacophore modeling and screening. A second Molecular Libraries Screening Centers Network HTS was conducted at the Columbia University Genome Center to generate hits as listed on PUBCHEM (AID: 1285), from which the dose-response assays identified 50 lead APP 5′UTR-directed luciferase reporter inhibitors. […] These were directly measured and found not to inhibit luciferase enzyme activity. […] These thirteen leads were tricyclic aromatic compounds that included two major classes of hits: compounds with a benzimidazole backbone, i.e. APP blockers 2, −7, and −9 (JTR-009) and compounds with a benzothiazole backbone, i.e. APP blockers −8 and −13. The compounds with a benzothiazole backbone were also identified to be similar to PFTα, another benzothiazole, and P53 inhibitor, by showing protection against oxidative injuries in synaptosomes from wild-type mice and preserving presynaptic terminals in cultured hippocampal neurons exposed to etoposide).\nAPP 5′UTR-Luciferase inhibitor compounds obtained from the preliminary HTS of pIRES-APP-5′UTR transfectants were picked, and the dose-response assays were conducted at 0.1, 1.0, and 5.0 μM (based on the exact molecular weights of the compounds). […] Each hit was added in 5 wells, and this was repeated twice on 2 different days. There was a positive control and negative control column of cells as previously described.\nTo identify APP 5′UTR-specific translation blockers from LDDN Harvard (see ref [21]) and from the Columbia University Genome center, the inventors then counter-screened against the PrP 5′UTR and shortlisted thirteen potent inhibitors to be further characterized. In FIG. 1D, the listed constructs were employed to conduct these transfection based assays to ensure that the 13 APP specific leads were not also PrP inhibitors. Table 1 lists the IC50 of each of these inhibitors with respect to their dose-responsive capacity to reduce APP 5′UTR-driven luciferase expression relative to their IC50 values against PrP 5′UTR expression."}, "APP mRNA": {"tested_on": "APP mRNA", "assay_type": "cell-based, human", "experimental": "(§1) qRT-PCR was conducted to measure the capacity of JTR-009 to change steady state levels of […] levels, as was previously described (see Ref [6]). Desferrioxamine treatment was used for a positive control to assess changes to the steady state levels of both APP mRNA and transferrin receptor mRNAs. Primers for β-actin were employed as a control for an mRNA previously shown to be unchanged by desferrioxamine and other inducers. Experiments were carried out on the ABI Prism 7000 sequence detection system (Applied Biosystems). […] The primers to β-actin, TfR1 were designed and ordered from Invitrogen. The APP primer set was purchased from Qiagen and has been benchmarked on several reports for accurate measurement of APP mRNA levels."}, "[1]": {"tested_on": "IRP1 and IRP2 binding to H-ferritin IRE", "assay": "Biotinylated RNA pulldown assay, IRP1/IRP2 binding to H-ferritin IRE probe", "set-up": "species or system human", "settings": "same conditions as APP IRE pulldown", "experimental": "(§2) Biotinylated RNA oligonucleotides: […] Paramagnetic streptavidin-conjugated Dynabeads (Invitrogen) were washed with ribonucleoprotein immunoprecipitation buffer, added into lysates to bind IRP(1/2)-biotinylated-RNA complexes, and incubated for 1 hour at room temperature. After five washes, the proteins that bound to the beads were analyzed by Western blotting for IRP1, IRP2, and biotin. […] The IREs-bound IRPs were quantified by Quantity One® software (Bio-Rad)."}, "α-synuclein (SNCA)": {"tested_on": "α-synuclein (SNCA)", "assay": "Western blot of α-synuclein levels in primary mouse neurons", "procedure": "Primary cortical neurons from wild type mice and from the PAC-Tg(SNCA(wt) human SNCA genomic mice [22] were cultured as outlined by the method of Ray et al., 2009 [23]. The embryonic (E15-18) pups were recovered after sacrificing pregnant females, separated out the brain, and removed the meninges and blood vessels. The cortices were then dissected out and placed them in separate Eppendorf tubes containing 500 uL of HBSS without Ca+^2/Mg^+2 salts supplemented with 1 mM sodium pyruvate and 10 mM HEPES, pH 7.4. On ice, individual cells were isolated by titrating 10 times using a glass pasture pipette with the tip barely fire polished. The volume was adjusted to 1.5 mL, by adding 1 mL of HBSS with Ca^+2/Mg^+2 salts+Na. pyruvate+HEPES, restoring the divalent cations by adding HBSS so that the non-dispersed tissue could settle for 5 min, on ice. In the tissue culture laminar hood, the supernatant was transferred into a new 15 mL tube and centrifuged for 1 minute at 900 rpm, 4° C. The pellet was gently re-suspended in 2 mL of HBSS with Ca^+2/Mg^+2 salts+Na pyruvate+HEPES and took an aliquot for counting (2 mL for approx 5 embryos). The cells were then plated at ˜1×10^5 cells/well of a 24 well or 2×10^5/in 12 well plates. Each set of plates was coated with poly D-lysine containing poly L-lysine coverslips for micro immuncytochemical confirmation of neuronal integrity.\n(§3) After cells were exposed to increasing concentrations of the compounds as outlined in each figure legend, cytoplasmic protein lysates were prepared by homogenizing the cells in midRIPA buffer (25 mM Tris pH 7.4, 1% NP40, 0.5% sodium deoxycholate, 15 mM NaCl, protease inhibitors, RNase inhibitor and 10 μM DTT). Western blotting for APP was performed using the N-terminal 22C11 antibody (Millipore, Inc) and the A8717 C-terminal specific APP antibody (Sigma, inc), while αsyn was detected using mouse monoclonal anti-αsyn (BD Transduction Laboratories) and anti-β-actin (Chemicon). […] The bands were quantified using QuantityOne® software (BioRad)."}, "APP [2]": {"tested_on": "APP", "assay": "Western blot of APP levels in primary mouse cortical neurons", "procedure": "Primary cortical neurons from wild type mice and from the PAC-Tg(SNCA(wt) human SNCA genomic mice [22] were cultured as outlined by the method of Ray et al., 2009 [23]. The embryonic (E15-18) pups were recovered after sacrificing pregnant females, separated out the brain, and removed the meninges and blood vessels. The cortices were then dissected out and placed them in separate Eppendorf tubes containing 500 uL of HBSS without Ca+^2/Mg^+2 salts supplemented with 1 mM sodium pyruvate and 10 mM HEPES, pH 7.4. On ice, individual cells were isolated by titrating 10 times using a glass pasture pipette with the tip barely fire polished. […]\nas §3"}, "IRP1 binding to APP IRE": {"tested_on": "IRP1 binding to APP IRE", "assay": "Biotinylated RNA pulldown assay, IRP1 binding to APP IRE probe", "set-up": "species or system human", "experimental": "as §2"}, "PrP 5′UTR": {"tested_on": "PrP 5′UTR", "assay": "cells", "settings": "Homo sapiens, SH-SY5Y, read-out: IC50 to reduce 5′UTR driven luciferase expression in pIRES-PrP-5′UTR transfectants"}, "APP [3]": {"tested_on": "APP", "procedure": "After cells were exposed to increasing concentrations of the compounds as outlined in each figure legend, cytoplasmic protein lysates were prepared by homogenizing the cells in midRIPA buffer (25 mM Tris pH 7.4, 1% NP40, 0.5% sodium deoxycholate, 15 mM NaCl, protease inhibitors, RNase inhibitor and 10 μM DTT). Western blotting for APP was performed using the N-terminal 22C11 antibody (Millipore, Inc) and the A8717 C-terminal specific APP antibody (Sigma, inc), while αsyn was detected using mouse monoclonal anti-αsyn (BD Transduction Laboratories) and anti-β-actin (Chemicon). The blots were developed using chemiluminescence (PIERCE, Rockford, Ill.) and visualized with a Phosphoimager (BioRad, Hercules, Calif.). The bands were quantified using QuantityOne® software (BioRad)."}, "APP and amyloid-beta [4]": {"tested_on": "APP and amyloid-beta", "assay_type": "cell-based", "settings": "Table 2; printed in brackets as max; read-out: APP and amyloid-beta Inhibition (IC50), max"}, "TfR mRNA": {"tested_on": "TfR mRNA", "assay_type": "cell-based, human", "settings": "iron chelation, 25 μM, positive control", "experimental": "as §1"}, "APP and amyloid-beta [5]": {"tested_on": "APP and amyloid-beta", "settings": "Table 2; Refs 27, 33; read-out: APP and amyloid-beta Inhibition (IC50); cited from earlier work"}}, "note": "Entries after “also recorded” stand apart in the source; their conditions may differ. Read-outs that look alike come from different tables or passages of the source."}
{"smiles": "COc1cc(SC)ccc1C(=O)Nc1nc2ccccc2[nH]1", "note": "[BL-1]", "values": [{"measurement": "concentration to inhibit APP 5′UTR conferred translation, times less than strophanthidin", "setting": "APP 5′UTR; FIG. 8, relative to strophanthidin", "value": 500, "unit": "times"}]}
{"smiles": "Cc1ccc2[nH]c(-c3ccc(N)cc3)nc2c1", "note": "[JTR-009, 4-(5-methyl-1H-benzimidazol-2yl) aniline]", "values": [{"measurement": "APP mRNA levels", "setting": "APP mRNA; 0.1 nM to 10 μM drug, N=4", "value": "unchanged"}, {"measurement": "increase of APP mRNA levels", "setting": "APP mRNA; 100 μM", "value": "~10", "unit": "%"}, {"measurement": "IRP1/IRP2 binding to H-ferritin IRE probes", "setting": "[1]", "value": "always maintained; also recorded: no inhibitory change"}, {"measurement": "average pair-wise reduction of SNCA levels (threshold)", "setting": "α-synuclein (SNCA); 0.001 μM, 48 hours", "value": 50, "unit": "%"}, {"measurement": "α-synuclein (SNCA) levels", "setting": "α-synuclein (SNCA); primary mouse neurons, same treatment as APP reduction", "value": "unchanged; also recorded: no significant changes"}, {"measurement": "reduction of APP levels", "setting": "APP [2]; concentrations as low as 10 nM, primary mouse cortical neurons", "value": 60, "unit": "%"}, {"measurement": "lowest dose that inhibited APP levels", "setting": "APP [2]; primary mouse E-18 neurons", "value": 1, "unit": "nM"}, {"measurement": "reduction of IRP1 binding to biotinylated APP IRE RNA probes", "setting": "IRP1 binding to APP IRE; 0.3 μM, N=7", "value": 20, "unit": "%"}, {"measurement": "fold reduction of IRP1 binding to the APP IRE", "setting": "IRP1 binding to APP IRE; 3 μM, 48 hour exposure", "value": 2, "unit": "fold"}, {"measurement": "reduction of IRP1 binding to biotinylated APP IRE RNA probes", "setting": "IRP1 binding to APP IRE; 3 μM, N=7", "value": 50, "unit": "%"}, {"measurement": "IRP1 binding to biotinylated APP IRE RNA probes", "setting": "IRP1 binding to APP IRE; 30 μM, N=7", "value": "completely inhibited"}, {"measurement": "IC50", "setting": "PrP 5′UTR", "value": 4000, "unit": "nM"}, {"measurement": "concentration that limits APP translation", "setting": "APP [3]", "value": "less than one"}, {"measurement": "reduction of APP in lysate supernatants of RNA pulldown", "setting": "APP [3]; 3 μM", "value": 35, "unit": "%"}, {"measurement": "reduction of APP (densitometry, β-actin standardized)", "setting": "APP [3]; 20 μM, 48 hour treatment", "value": 50, "unit": "%"}, {"measurement": "reduction of APP in lysate supernatants of RNA pulldown", "setting": "APP [3]; 30 μM", "value": 70, "unit": "%"}, {"measurement": "APP levels, percent of control levels", "setting": "APP [3]; 30 μM, 48 hours, N=5", "value": 30, "unit": "%"}, {"measurement": "IC50", "setting": "APP [3]; read-out: IC50 for translational inhibition of APP, dose-responsive assays", "value": "< 1000", "unit": "nM"}, {"measurement": "IC50", "setting": "APP and amyloid-beta [4]", "value": 10, "unit": "nM"}, {"measurement": "reduction of APP 5′UTR activity", "setting": "APP 5′UTR; 0.1 μM drug, N=4", "value": "two-fold"}, {"measurement": "IC50", "setting": "APP 5′UTR; Homo sapiens, SH-SY5Y, 384-plate assays, inhibition curves, first IC50 line of Table 1, read-out: IC50 to reduce 5′UTR driven luciferase expression in pIRES-APP-5′UTR transfectants", "value": 400, "unit": "nM"}, {"measurement": "IC50", "setting": "APP 5′UTR; Homo sapiens, SH-SY5Y, FIG. 4A, dose response, N=4, read-out: IC50 to limit APP 5′UTR-luciferase expression", "value": 100, "unit": "nM"}, {"measurement": "IC50", "setting": "APP 5′UTR; Homo sapiens, SH-SY5Y, Table 2, read-out: APP 5′UTR Inhibition (IC50)", "value": 100, "unit": "nM"}, {"measurement": "IC50", "setting": "APP 5′UTR; Homo sapiens, SH-SY5Y, dose-responsive measurements, range, read-out: IC50 against the APP 5′UTR", "value": "1 to 100", "unit": "nM"}, {"measurement": "fold more potent/effective than posiphen to limit APP 5′UTR driven translation", "setting": "APP 5′UTR; relative to posiphen, listed as Formula I", "value": "about 10 fold"}]}
{"smiles": "CC(=O)N(O)CCCCCNC(=O)CCC(=O)N(O)CCCCCNC(=O)CCC(=O)N(O)CCCCCN", "note": "[desferrioxamine, reference compound]", "values": [{"measurement": "APP mRNA levels", "setting": "APP mRNA; iron chelation with desferrioxamine", "value": "unchanged"}, {"measurement": "increase of transferrin receptor mRNA levels", "setting": "TfR mRNA", "value": 2, "unit": "fold"}]}
{"smiles": "CN1CC[C@]2(C)c3cc(OC(=O)Nc4ccccc4)ccc3N(C)[C@H]12", "note": "[posiphen, reference compound]", "values": [{"measurement": "IC50", "setting": "APP and amyloid-beta [5]", "value": 1000, "unit": "nM"}, {"measurement": "increase of APP 5′UTR activity", "setting": "APP 5′UTR; 0.1 μM drug, matched conditions", "value": 15, "unit": "%"}, {"measurement": "IC50", "setting": "APP 5′UTR; FIG. 4A, dose response, N=4, read-out: IC50 to limit APP 5′UTR-luciferase expression", "value": 5000, "unit": "nM"}]}
